# Reference: patent US20230346969A1, “INTERMEDIATE FOR PREPARING ANTIBODY-DRUG CONJUGATE (ADC), PREPARATION METHOD THEREFOR, AND USE THEREOF” (priority 2020, published 2023)
# Read-outs that look alike come from different tables or passages of the source. Where a SMILES comes first, the peptide text is derived from it. [ ]: non-standard residue; d: D form. The star is where a group is joined. Dolaproine = CO[C@@H]([C@@H]1CCCN1)[C@@H](C)C(=O)O; Dil = CC[C@H](C)[C@H](NC)[C@@H](CC(=O)O)OC; X1 = C[C@@H](N*)[C@@H](O)c1ccccc1; NMeV = CN[C@H](C(=O)O)C(C)C
# Legend:
# CFPAC-1 = experiment: Cell viability assay (CCK-8); assay type: cell-based; conditions: CCK-8, 96 hours, read-out: IC50 (95% Cl)
# Method: (§1) Cell viability was determined using Cell Counting Kit 8 (CCK-8). Cells were seeded into 96-well plates at 3000-10000 cells/well. After incubation overnight, drugs were added at different concentrations. Plates were incubated in a 5% CO2, 37° C. humidified chamber for 96 hours. CCK8 reagent was added thereto and the plates were placed back to the incubator until the absorbance at 450 nm of untreated control cells was greater than 1.0. Growth inhibition was measured as the percent growth relative to untreated cells. Dose response curve was generated from the mean values of two or three tests, and IC50 values were calculated using Prism GraphPad software.
# (§2) The anti-tumor efficacy of different payloads on different tumor cell lines was detected by CCK-8, and the results are shown in FIG. 5.
# BXPC-3 = experiment: Cell viability assay (CCK-8); assay type: cell-based; conditions: CCK-8, 96 hours, Pancreas, read-out: IC50 (95% Cl)
# Method: as §1, §2
# MDA-MB-468 = experiment: Cell viability assay (CCK-8); assay type: cell-based; conditions: CCK-8, 96 hours, read-out: IC50 (95% Cl)
# Method: as §1, §2
# SK-MES-1 = experiment: Cell viability assay (CCK-8); assay type: cell-based; conditions: CCK-8, 96 hours, Lung, read-out: IC50 (95% Cl)
# Method: as §1, §2
# NCI-H1688 = experiment: Cell viability assay (CCK-8); assay type: cell-based; conditions: CCK-8, 96 hours, Lung, read-out: IC50 (95% Cl)
# Method: as §1, §2
# MDA-MB-231 = experiment: Cell viability assay (CCK-8); assay type: cell-based; conditions: CCK-8, 96 hours, Mamary, read-out: IC50 (95% Cl)
# Method: as §1, §2
# HCC1806 = experiment: Cell viability assay (CCK-8); assay type: cell-based; conditions: CCK-8, 96 hours, Mamary, read-out: IC50 (95% Cl)
# Method: as §1, §2
# SKBR3 = experiment: Cell viability assay (CCK-8); assay type: cell-based; conditions: CCK-8, 96 hours, read-out: IC50 (95% Cl)
# Method: as §1, §2
# HT29 = experiment: Cell viability assay (CCK-8); assay type: cell-based; conditions: CCK-8, 96 hours, Colon, read-out: IC50 (95% Cl)
# Method: as §1, §2
# NCIH2452 = experiment: Cell viability assay (CCK-8); assay type: cell-based; conditions: ADCs; CCK-8, 96 hours; cell 'HOC2401' [sic], Lung; read-out: IC50 (95% Cl)
# Method: as §1, §2
# SCLC-21H = experiment: Cell viability assay (CCK-8); assay type: cell-based; conditions: CCK-8, 96 hours, read-out: IC50 (95% Cl)
# Method: as §1, §2
# Capan-1 = experiment: Cell viability assay (CCK-8); assay type: cell-based; conditions: CCK-8, 96 hours, Pancreas, read-out: IC50 (95% Cl)
# Method: as §1, §2
# COLO205 = experiment: Cell viability assay (CCK-8); assay type: cell-based; conditions: CCK-8, 96 hours, read-out: IC50 (95% Cl)
# Method: as §1, §2
# SKBR3 cells = experiment: Endocytosis and intracellular localization of ADC by confocal microscopy; assay type: cell-based; conditions: 5 µg/mL, 37° C., 45 or 90 min
# Method: SKBR3 cells were incubated with 5 µg/mL of hRS7-VK-PTX or hRS7-VK-SN38 in a 24-well plate (1 × 10^4 cells/well) in a 5% CO2, 37° C. incubator for 45 or 90 min. Cells were washed once with PBS, fixed and permeabilized. After washing, cells were stained with 488 goat anti-human IgG (H&L) or 555 anti-rabbit IgG F(ab′)2 fragment. Nuclear DNA was stained with 4′,6-dimidyl-2-phenylindole (DAPI). Immunofluorescence was recorded with an Olympus BK71 confocal microscope.
# SKBR3 cells were incubated with ADC molecules at 37° C. for 45 or 90 min. Unbound ADC was removed by washing cells in a culture medium, then the cells were fixed and permeabilized. The marker proteins LAMP-1, GM130 and clathrin were detected with their respective antibodies and a secondary antibody conjugated to Alex®555 (red). Anti-Trop-2 ADC was detected with DyLight®488-conjugated secondary antibody (green). DAPI was used to stain nuclear DNA (blue).
# [1] = Adverse effects and weight loss of mice treated in the efficacy models; assay type: in vivo, BALB/c nu/nu mice
# From the text: (§3) Five-week-old female athymic BALB/c nu/nu mice were purchased from Charles River Company (Shanghai, China), and mice were randomly divided into 5-6 mice/group. Animal handling and procedures were approved and performed in accordance with the requirements of the Institutional Animal Care and Use Committee (IACUC) of Shanghai Institute of Materia Medica, Chinese Academy of Sciences. All models were inoculated subcutaneously on the side of mice. BXPC-3, HCC1806 and NCIH1688 cells were established by injecting and homogenizing 5 × 10^6 cells in Matrigel matrix. COLO205 cells were established by injecting and suspending 1 × 10^7 cells in Matrigel matrix. After the tumor volume reached about 200 mm^3, the tumor-bearing mice were randomly divided into treatment groups and a control group according to the tumor volume. Each drug was administered intraperitoneally. Mice were injected at doses of 3 or 10 mg/kg (10 mL/kg). Tumor volume was defined as length × ½ × width × width. The percentage of inhibition was calculated by the following formula: (1-average tumor volume of the treatment group/average tumor volume of the control group)×100%. Toxicity of the different treatment groups was assessed by monitoring weight loss.
# [2] = test system: tumor cell lines with different expression levels of Trop-2; experiment: Cell viability assay (CCK-8), comparison across the cell panel; assay type: cell-based; conditions: tumor cell lines with different expression levels of Trop-2
# Method: as §1, §2
# NCIH1688 cells = experiment: Transplanted tumor from NCIH1688 cells alone (not expressing Trop-2); assay type: in vivo, BALB/c-nu/nu mice; conditions: hRS7-VK-PTX 10 mg/kg, hRS7-VK-MMAE 3 mg/kg
# From the text: as §3, with “Mice were injected at doses of 3 or 10 mg/kg (10 mL/kg). Tumor volume was defined as length × ½ × width × width.” left out
# (§4) A mixture of Trop-2-positive tumor cells BXPC-3 and Trop-2-negative tumor cells NCIH1688 or NCIH1688 cells alone were inoculated into BALB/c-nu/nu mice (FIG. 1e, right panel), and the “bystander effect” of hRS7-VK-PTX was detected in a mouse transplanted tumor model.
# [3] = test system: mixture of Trop-2-positive tumor cells BXPC-3 and Trop-2-negative tumor cells NCIH1688; experiment: Bystander effect: transplanted tumor from mixture of BXPC-3 and NCIH1688 cells; assay type: in vivo, BALB/c-nu/nu mice; conditions: 3 mg/kg, transplanted tumors heterogeneously expressing Trop-2
# From the text: as §3, with “Mice were injected at doses of 3 or 10 mg/kg (10 mL/kg). Tumor volume was defined as length × ½ × width × width.” left out
# as §4
# [4] = Dose tolerability, single intravenous dose acute toxicity; assay type: in vivo; conditions: single intravenous dose 60 mg/kg, BALB/c mice
# Method: Dose tolerability assay was performed in BALB/c mice (3 mice per dose). The drug was given in a single intravenous dose. The injection doses of hRS7-VK-PTX were 60, 80 and 100 mg/kg, and the injection doses of hRS7-VK-MMAE were 60 and 80 mg/kg, respectively. Toxicity was assessed by observing mouse behavior, weight loss and survival. The weight change rate (%) was calculated as: (body weight - body weight before treatment)/(body weight before treatment) × 100%.
# The safety of relatively high doses of hRS7-VK-PTX in BALB/c mice was studied by an acute toxicity experiment with single intravenous administration in mice.
# [5] = ADCs, cell CPAC-1 [sic], Pancreas
# [6] = ADCs, cell printed 'COXC28', Colon
# [7] = hRS7-VK-MMAE 3 mg/kg, hRS7-VK-SN38 3 or 10 mg/kg, PTX alone
# [8] = free payloads, cell CFPAC-1, Pancreas
# [9] = free payloads, cell 'BKFC-Y' [sic]
# [10] = free payloads, cell printed 'MOA-413-468', Mamary
# [11] = free payloads, cell 'SK-M55-1' [sic]
# [12] = free payloads, cell 'NCl-H1828' [sic]
# [13] = free payloads, 'MCP-83-21' [sic]
# [14] = free payloads, cell 'SK8RS' [sic], Mamary
# [15] = free payloads, cell 'H123' [sic]
# [16] = free payloads, cell 'ECLC 214' [sic], Small cell lung
# [17] = free payloads, cell 'Cepes-3' [sic]
# [18] = free payloads, cell 'CCAO205' [sic], Colen
Compound,IC50 (CFPAC-1; [5]) [nM],"IC50 (BXPC-3; ADCs, cell RMCA [sic]) [nM]","IC50 (MDA-MB-468; ADCs, SRM-M9-409, Mammary) [nM]","IC50 (SK-MES-1; ADCs, cell 'SK-WSS-7' [sic]) [nM]","IC50 (NCI-H1688; ADCs, cell 'HCl-11685' [sic]) [nM]","IC50 (MDA-MB-231; ADCs, cell 'SRM-K9-231' [sic]) [nM]","IC50 (HCC1806; ADCs, 'HOC1906' [sic]) [nM]","IC50 (SKBR3; ADCs, 'SKERS' [sic], Mammary) [nM]","IC50 (HT29; ADCs, cell '3128' [sic]) [nM]",IC50 (NCIH2452) [nM],"IC50 (SCLC-21H; ADCs, SRM-C-21H) [nM]","IC50 (Capan-1; ADCs, Cxoo-1 [sic]) [nM]",IC50 (COLO205; [6]) [nM],"adverse effects or weight loss in treated mice, relative to hRS7-VK-PTX (none) [1, 7]",IC50 (CFPAC-1; [8]) [nM],IC50 (BXPC-3; [9]) [nM],IC50 (MDA-MB-468; [10]) [nM],IC50 (SK-MES-1; [11]) [nM],IC50 (NCI-H1688; [12]) [nM],IC50 (MDA-MB-231; [13]) [nM],other results
hRS7-VK-SN38,3.14,1.53,1.37,80.5,> 300,3.03,0.879,1.45,5.59,10.3,16.3,12.4,16.8,,,,,,,,"internalization and intracellular localization (SKBR3 cells): did not undergo significant internalization; adverse effects or weight loss in treated mice, relative to hRS7-VK-PTX (none) ([1]; mouse, in vivo): stark contrast"
"CC(=O)O[C@H]1C(=O)[C@@]2(C)[C@H]([C@H](OC(=O)c3ccccc3)[C@]3(O)C[C@H](OC(=O)[C@H](O)[C@@H](NC(=O)c4ccccc4)c4ccccc4)C(C)=C1C3(C)C)[C@]1(OC(C)=O)CO[C@@H]1C[C@@H]2O [PTX, Paclitaxel]",,,,,,,,,,,,,,stark contrast,,,,,,,"IC50 (CFPAC-1; Homo sapiens, free payloads, cell CFPAC-1, Pancreas): > 300 nM; IC50 (BXPC-3; Homo sapiens, BXPC-3, free payloads, cell 'BKFC-Y' [sic]): 0.468 nM; IC50 (MDA-MB-468; Homo sapiens, MDA-MB-468, free payloads, cell printed 'MOA-413-468', Mamary): 7.22 nM; IC50 (SK-MES-1; Homo sapiens, SK-MES-1, free payloads, cell 'SK-M55-1' [sic]): 53.1 nM; IC50 (NCI-H1688; NCI-H1688, free payloads, cell 'NCl-H1828' [sic]): 37.3 nM; IC50 (MDA-MB-231; Homo sapiens, MDA-MB-231, free payloads, 'MCP-83-21' [sic]): > 300 nM; IC50 (HCC1806; Homo sapiens, HCC1806, free payloads, 'HCCHOI' [sic]): 2.46 nM; IC50 (SKBR3; Homo sapiens, SK-BR-3, free payloads, cell 'SK8RS' [sic], Mamary): ~852 nM; IC50 (HT29; Homo sapiens, HT-29, free payloads, cell 'H123' [sic]): > 300 nM; IC50 (SCLC-21H; Homo sapiens, SCLC-21H, free payloads, cell 'ECLC 214' [sic], Small cell lung): ~32 nM; IC50 (Capan-1; Homo sapiens, CAPAN-1, free payloads, cell 'Cepes-3' [sic]): 7.43 nM; IC50 (COLO205; Homo sapiens, COLO 205, free payloads, cell 'CCAO205' [sic], Colen): > 300 nM; cytotoxicity of individual payload molecules [2]: weaker than that of MMAE, but close to that of SN38"
CCc1c2c(nc3ccc(O)cc13)-c1cc3c(c(=O)n1C2)COC(=O)[C@]3(O)CC [SN38],,,,,,,,,,,,,,,~0.281,20.8,3.72,5.5,~4.9,103,"IC50 (HCC1806; free payloads, 'HCCHOI' [sic]): 0.412 nM; IC50 (SKBR3; [14]): 2.14 nM; IC50 (HT29; [15]): > 305 nM; IC50 (SCLC-21H; [16]): 2.14 nM; IC50 (Capan-1; [17]): 5.61 nM; IC50 (COLO205; [18]): 33.4 nM"
hRS7-VK-MMAE,> 300,0.0124,0.0645,> 325,~3.76,> 300,0.0174,~2.24,~250,~1.21,0.0324,> 300,> 300,stark contrast,,,,,,,killing effect on transplanted tumors not expressing Trop-2 (NCIH1688 cells): had a killing effect; tumor growth inhibition index (TGI) [3]: 91.7%; adverse reactions [4]: severe adverse reactions; body weight loss [4]: more than 15%
CC[C@H](C)[C@@H]([C@@H](CC(=O)N1CCC[C@H]1[C@H](OC)[C@@H](C)C(=O)N[C@H](C)[C@@H](O)c1ccccc1)OC)N(C)C(=O)[C@@H](NC(=O)[C@@H](NC)C(C)C)C(C)C [MMAE] (H-[NMeV]V[Dil][Dolaproine]-X1),,,,,,,,,,,,,,,> 300,0.263,~0.141,0.225,1.74,> 300,"IC50 (HCC1806; free payloads, 'HCCHOI' [sic]): 0.0177 nM; IC50 (SKBR3; [14]): 0.0327 nM; IC50 (HT29; [15]): ~3.05 nM; IC50 (SCLC-21H; [16]): 0.0131 nM; IC50 (Capan-1; [17]): 0.366 nM; IC50 (COLO205; [18]): 0.155 nM"
